Data as given in patent US9795561B2, “Combination of umeclidinium, fluticasone propionate and salmeterol xinafoate for use in the treatment of inflammatory or respiratory tract diseases” (Glaxo Group Limited, priority 2012, dated 2017).

Legend:
human M3 receptor = human M3 receptor (Homo sapiens, UniProt P20309); test: Reversibility at the human M3 receptor in vitro; type: binding
pre-clinical models = test: Duration of action in vivo when administered directly to the lungs in pre-clinical models
[1] = test system: healthy volunteers and COPD patients; test: Clinical pharmacology studies, single inhaled doses, plethysmography (sGaw, Raw) and spirometry (FEV1); type: in vivo, human
Procedure: Several clinical pharmacology studies have been conducted using umeclidinium bromide in both healthy volunteers and COPD patients to investigate the safety, tolerability, pharmacokinetics and pharmacodynamics of this compound. The bronchodilatory effects and duration of action of single inhaled doses of this compound as measured by plethysmography (sGaw, Raw) and spirometry (FEV1) were assessed in some of the above noted studies.

subjects with COPD [2] = test: 14-day once-daily dose-ranging study in subjects with COPD; type: in vivo, human
Source text: In addition, this study confirmed that umeclidinium bromide has a once-daily profile.

subjects with COPD [3] = test: 28-day once-daily dry powder inhaler study in subjects with COPD; type: in vivo, human; conditions: 125, 250 and 500 mcg once-daily, 28 days
Source text: A further study evaluated the efficacy and safety of three doses of umeclidinium (125 mcg, 250 mcg and 500 mcg as umeclidinium bromide) administered once-daily via a dry powder inhaler over a 28 day period in subjects with COPD.

muscarinic receptor = test: Muscarinic receptor antagonism, studies in animal models and in humans

Sequence of human M3 receptor (P20309 whole entry): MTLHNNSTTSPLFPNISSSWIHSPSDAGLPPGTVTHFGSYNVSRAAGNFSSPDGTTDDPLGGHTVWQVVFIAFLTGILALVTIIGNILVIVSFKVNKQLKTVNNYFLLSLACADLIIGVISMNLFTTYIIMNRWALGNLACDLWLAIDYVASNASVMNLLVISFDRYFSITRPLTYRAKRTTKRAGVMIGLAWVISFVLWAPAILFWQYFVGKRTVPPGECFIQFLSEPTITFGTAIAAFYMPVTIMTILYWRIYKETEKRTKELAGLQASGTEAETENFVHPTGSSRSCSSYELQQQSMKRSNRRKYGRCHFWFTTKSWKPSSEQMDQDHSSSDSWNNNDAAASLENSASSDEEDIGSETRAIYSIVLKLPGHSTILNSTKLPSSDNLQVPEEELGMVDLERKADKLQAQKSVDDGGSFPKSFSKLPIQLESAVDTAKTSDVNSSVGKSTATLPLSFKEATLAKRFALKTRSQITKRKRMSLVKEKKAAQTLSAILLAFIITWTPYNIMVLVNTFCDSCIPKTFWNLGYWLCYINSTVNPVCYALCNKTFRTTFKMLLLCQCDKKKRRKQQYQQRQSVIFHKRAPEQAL

For `OC(c1ccccc1)(c1ccccc1)C12CC[N+](CCOCc3ccccc3)(CC1)CC2.[Br-]` [umeclidinium bromide, 4-[hydroxy(diphenyl)methyl]-1-{2-[(phenylmethyl)oxy]ethyl}-1-azoniabicyclo[2.2.2]octane bromide], the “reversibility at the human M3 receptor” value (human M3 receptor) was “slow reversibility”, the “duration of action in vivo” value (pre-clinical models) was “long duration of action” and the bronchodilatory effect [1] was “clinically relevant bronchodilation”. For the same compound, the duration of action [1] was 24 h, the “improvement in trough FEV1 versus open label tiotropium (18 mcg once-daily)” value (subjects with COPD [2]; all once-daily doses (62.5-1000 mcg), 14 days) was “numerically greater improvement” and the “pulmonary function compared to placebo” value (subjects with COPD [2]; five once-daily doses (62.5, 125, 250, 500, 1000 mcg) over 14 days) was “statistically significant improvements”. For the same compound, the bronchodilation (subjects with COPD [3]) was “maintaining significant bronchodilation over twenty four hours”, the safety (subjects with COPD [3]) was “appears to be safe” and the “muscarinic receptor antagonist profile” value (muscarinic receptor) was “long acting high-affinity pan-active muscarinic receptor antagonist”.
